Legend:
SNB-19 (CNS Cancer) = experiment: NCI one dose, SNB-19; assay type: cell-based, human; settings: SNB-19, 1.00E-5 Molar one dose
Protocol: (§1) 3.4. Cell Proliferation Assay
(§2) Selected compounds were tested on a panel of 60 human cancer cell lines at the National Cancer Institute (NCI), Germantown, MD, USA. The cytotoxicity studies were conducted using a 48 h exposure protocol using the sulfo-rhodamine B assay.

MALME-3M (Melanoma) = experiment: NCI one dose, MALME-3M; assay type: cell-based, human; settings: 1.00E-5 Molar one dose
Protocol: as §1, §2

[1] = system: NCI-H522 non-small cell lung cancer cells; experiment: NCI cell proliferation, NCI-H522; assay type: cell-based, human; settings: for inhibition at 10 µM: Homo sapiens, NCI-H522, read-out: % Cancer cell growth Inhibition (NCI-H522); for Growth Percent: NCI-H522, 1.00E-5 Molar one dose
Protocol: as §1, §2

786-0 (Renal Cancer) = experiment: NCI one dose, 786-0; assay type: cell-based, human; settings: 786-0, 1.00E-5 Molar one dose
Protocol: as §1, §2

[2] = system: MDA-MB-231/ATCC (Breast Cancer); experiment: NCI one dose, MDA-MB-231/ATCC; assay type: cell-based, human; settings: 1.00E-5 Molar one dose
Protocol: as §1, §2

LOX IMVI (Melanoma) = experiment: NCI one dose, LOX IMVI; assay type: cell-based, human; settings: 1.00E-5 Molar one dose
Protocol: as §1, §2

[3] = target: human farnesyltransferase (FTase) (Homo sapiens, UniProt P49354+P49356); experiment: FTase inhibitory assay (fluorescence, Dansyl-GCVLS); assay type: biochemical; settings: for IC50: human FTase in vitro; for % FTI: inhibition of human FTase at 100 μM of tested compound, mean of two experiments
Protocol: With 40 new products in hand, the determination of their inhibitory activity on human farnesyl-transferase (FTase) in vitro was first undertaken. Dimethyl sulfoxide (DMSO) was used as the negative control, and Chaetomellic acid A was the positive reference in all assays. At the outset, and in order to select only significant results, products with an inhibitory power greater than 60% at an initial screening concentration of 100 µM were retained for the determination of their IC50 and, therefore, for further discussion. Moreover, given the number of products tested, they are grouped into three subfamilies on the basis of the degree of the sulphur atom oxidation (series of sulfides, series of sulfoxides, and series of sulfones), and the results obtained are grouped in Table 1, Table 2 and Table 3.
3.3. FTase Inhibitory Assay
Assays were realized in 96-well plates, prepared with a Biomek NKMC and a Biomek 3000 from Beckman Coulter, and read on a Wallac Victor fluorimeter from PerkinElmer. Per well, 20 µL of farnesyl pyrophosphate (10 μM) was added to 180 µL of a solution containing 2 µL of varied concentrations of potential inhibitors (dissolved in DMSO) and 178 μL of a solution composed of 10 μL of partially purified recombinant human FTase (15 µg mL^−1) and 1.0 µL of Dansyl-GCVLS peptide (in the following buffer: 5.6 mM DTT, 5.6 mM MgCl2, 12 μM ZnCl2 and 0.2% (w/v) octyl-β-D-glucopyranoside, 52 mM Tris/HCl, pH 7.5). Fluorescence was recorded for 15 min (0.7 s per well, 20 repeats) at 30 °C with an excitation filter at 340 nm and an emission filter of 486 nm. Each measurement was reproduced twice, in duplicate. The kinetic experiments were realized under the same conditions, either with FPP as varied substrate with a constant concentration of Dns-GCVLS of 2.5 μM or with Dns-GCVLS as varied substrate with a constant concentration of FPP of 10 μM. Non-linear regressions were performed using the Excel software.

[4] = system: HOP-92 (Non-Small Cell Lung Cancer); experiment: NCI one dose, HOP-92; assay type: cell-based, human; settings: HOP-92, 1.00E-5 Molar one dose
Protocol: as §1, §2

KM12 (Colon Cancer) = experiment: NCI one dose, KM12; assay type: cell-based, human; settings: KM12, 1.00E-5 Molar one dose
Protocol: as §1, §2

MDA-MB-435 (Melanoma) = experiment: NCI one dose, MDA-MB-435; assay type: cell-based, human; settings: MDA-MB-435, 1.00E-5 Molar one dose
Protocol: as §1, §2

UACC-62 (Melanoma) = experiment: NCI one dose, UACC-62; assay type: cell-based, human; settings: UACC-62, 1.00E-5 Molar one dose
Protocol: as §1, §2

IGROV1 (Ovarian Cancer) = experiment: NCI one dose, IGROV1; assay type: cell-based, human; settings: IGROV1, 1.00E-5 Molar one dose
Protocol: as §1, §2

[5] = system: HOP-62 (Non-Small Cell Lung Cancer); experiment: NCI one dose, HOP-62; assay type: cell-based, human; settings: HOP-62, 1.00E-5 Molar one dose
Protocol: as §1, §2

[6] = system: EKVX (Non-Small Cell Lung Cancer); experiment: NCI one dose, EKVX; assay type: cell-based, human; settings: 1.00E-5 Molar one dose
Protocol: as §1, §2

RPMI-8226 (Leukemia) = experiment: NCI one dose, RPMI-8226; assay type: cell-based, human; settings: RPMI-8226, 1.00E-5 Molar one dose
Protocol: as §1, §2

SN12C (Renal Cancer) = experiment: NCI one dose, SN12C; assay type: cell-based, human; settings: 1.00E-5 Molar one dose
Protocol: as §1, §2

UO-31 renal cancer cells = experiment: NCI one dose, UO-31; assay type: cell-based, human; settings: UO-31, 1.00E-5 Molar one dose
Protocol: as §1, §2

M14 (Melanoma) = experiment: NCI one dose, M14; assay type: cell-based, human; settings: M14, 1.00E-5 Molar one dose
Protocol: as §1, §2

ACHN (Renal Cancer) = experiment: NCI one dose, ACHN; assay type: cell-based, human; settings: 1.00E-5 Molar one dose
Protocol: as §1, §2

MCF7 (Breast Cancer) = experiment: NCI one dose, MCF7; assay type: cell-based, human; settings: MCF7, 1.00E-5 Molar one dose
Protocol: as §1, §2

UACC-257 melanoma cells = experiment: NCI one dose, UACC-257; assay type: cell-based, human; settings: UACC-257, 1.00E-5 Molar one dose
Protocol: as §1, §2

HS 578T (Breast Cancer) = experiment: NCI one dose, HS 578T; assay type: cell-based, human; settings: 1.00E-5 Molar one dose
Protocol: as §1, §2

[7] = system: MDA-MB-468 breast cancer cells; experiment: NCI one dose, MDA-MB-468; assay type: cell-based, human; settings: MDA-MB-468, 1.00E-5 Molar one dose
Protocol: as §1, §2

OVCAR-8 (Ovarian Cancer) = experiment: NCI one dose, OVCAR-8; assay type: cell-based, human; settings: OVCAR-8, 1.00E-5 Molar one dose
Protocol: as §1, §2

PC-3 (Prostate Cancer) = experiment: NCI one dose, PC-3; assay type: cell-based, human; settings: PC-3, 1.00E-5 Molar one dose
Protocol: as §1, §2

Structure (SMILES) | Growth Percent (SNB-19 (CNS Cancer)) | Growth Percent (MALME-3M (Melanoma)) | inhibition at 10 µM [1] | Growth Percent [1] | Growth Percent (786-0 (Renal Cancer)) | Growth Percent [2] | Growth Percent (LOX IMVI (Melanoma)) | Growth Percent [4] | Growth Percent (KM12 (Colon Cancer)) | Growth Percent (MDA-MB-435 (Melanoma)) | Growth Percent (UACC-62 (Melanoma)) | Growth Percent (IGROV1 (Ovarian Cancer)) | Growth Percent [5] | Growth Percent [6] | Growth Percent (RPMI-8226 (Leukemia)) | Growth Percent (SN12C (Renal Cancer)) | Growth Percent (UO-31 renal cancer cells) | Growth Percent (M14 (Melanoma)) | Growth Percent (ACHN (Renal Cancer)) | Growth Percent (MCF7 (Breast Cancer)) | other results
COc1ccc(CNC(=O)[C@@H]2CS[C@H]3c4ccccc4C(=O)N23)cc1 [4aF] | 90.14% | 100.21% | 13% | 87.40% | 97.97% | 107.73% | 100.31% | 86.03% | 100.55% | 114.08% | 91.16% | 93.78% | 94.33% | 106.31% | 101.90% | 110.21% | 75.18% | 99.91% | 95.49% | 85.78% | IC50 [3]: 2730 nM; % FTI [3]: 80%; Growth Percent (UACC-257 melanoma cells): 97.39%; Growth Percent (HS 578T (Breast Cancer)): 104.20%; Growth Percent [7]: 122.00%; Growth Percent (OVCAR-8 (Ovarian Cancer)): 99.52%; Growth Percent (PC-3 (Prostate Cancer)): 90.27%
O=C(NCc1ccccc1C(F)(F)F)[C@@H]1CS[C@H]2c3ccccc3C(=O)N12 [4aC] | 95.80% | 108.73% | 22% | 78.18% | 86.33% | 91.35% | 102.58% | 77.56% | 102.90% | 102.87% | 88.82% | 98.93% | 87.37% | 99.35% | 87.69% | 101.45% | 74.84% | 95.62% | 99.65% | 90.35% | IC50 [3]: 594 nM; % FTI [3]: 62%; Growth Percent (UACC-257 melanoma cells): 86.31%; Growth Percent (HS 578T (Breast Cancer)): 104.53%; Growth Percent [7]: 112.27%; Growth Percent (OVCAR-8 (Ovarian Cancer)): 94.34%; Growth Percent (PC-3 (Prostate Cancer)): 85.22%
O=C(NCc1ccccc1)[C@@H]1CS[C@H]2c3ccccc3C(=O)N12 [4aA] | 96.70% | 111.55% | 13% | 79.32% | 85.46% | 100.79% | 97.27% | 87.72% | 110.51% | 106.84% | 97.72% | 105.80% | 97.31% | 105.39% | 105.32% | 98.99% | 91.66% | 94.47% | 102.35% | 87.71% | Growth Percent (UACC-257 melanoma cells): 96.60%; Growth Percent (HS 578T (Breast Cancer)): 107.68%; Growth Percent [7]: 105.86%; Growth Percent (OVCAR-8 (Ovarian Cancer)): 101.18%; Growth Percent (PC-3 (Prostate Cancer)): 96.96%
COc1cc(CNC(=O)[C@@H]2CS[C@H]3c4ccccc4C(=O)N23)cc(OC)c1OC [4aJ] | 92.64% | 105.79% | 17% | 83.00% | 90.66% | 84.71% | 99.61% | 93.68% | 103.41% | 106.49% | 92.01% | 102.86% | 94.96% | 101.46% | 95.00% | 99.01% | 84.08% | 94.92% | 100.59% | 104.04% | % FTI [3]: 23%; Growth Percent (UACC-257 melanoma cells): 98.86%; Growth Percent (HS 578T (Breast Cancer)): 101.31%; Growth Percent [7]: 91.25%; Growth Percent (OVCAR-8 (Ovarian Cancer)): 103.46%; Growth Percent (PC-3 (Prostate Cancer)): 87.87%
O=C(NCc1ccc(Cl)cc1Cl)[C@@H]1CS[C@H]2c3ccccc3C(=O)N12 [4aH] | 97.06% | 107.73% | 27% | 72.97% | 89.83% | 110.76% | 100.51% | 75.56% | 99.99% | 100.39% | 85.33% | 101.47% | 97.52% | 100.24% | 80.68% | 98.06% | 83.58% | 99.48% | 99.60% | 94.95% | % FTI [3]: 52%; Growth Percent (UACC-257 melanoma cells): 96.52%; Growth Percent (HS 578T (Breast Cancer)): 113.78%; Growth Percent [7]: 91.86%; Growth Percent (OVCAR-8 (Ovarian Cancer)): 97.57%; Growth Percent (PC-3 (Prostate Cancer)): 81.35%
O=C(NCc1cccc(C(F)(F)F)c1)[C@@H]1CS[C@H]2c3ccccc3C(=O)N12 [4aD] | 95.15% | 106.15% | 25% | 74.73% | 88.74% | 97.44% | 100.26% | 79.43% | 98.82% | 107.10% | 89.84% | 95.38% | 85.91% | 103.29% | 94.54% | 98.14% | 78.58% | 97.50% | 101.09% | 91.11% | % FTI [3]: 37%; Growth Percent (UACC-257 melanoma cells): 89.32%; Growth Percent (HS 578T (Breast Cancer)): 110.09%; Growth Percent [7]: 98.77%; Growth Percent (OVCAR-8 (Ovarian Cancer)): 94.59%; Growth Percent (PC-3 (Prostate Cancer)): 86.39%
